Reference: patent US9987336B2, “Attenuating or treating sepsis or septic shock” (Rutgers, the State University of New Jersey, priority 2012, dated 2018)
Entries after “also recorded” stand apart in the source; their conditions may differ.

Columns and labels:
adenosine receptors = settings: CD73 KO mice made septic by CLP; compared with wild-type mice; cited from earlier work
[1] = tested on: C57BL/6J mice made septic by cecal ligation and puncture (CLP); assay: Survival after sepsis induced by cecal ligation and puncture (CLP); format: in vivo, mouse; settings: murine model of septic shock induced by cecal ligation and puncture
Description: In this analysis, CD39 KO mice, mice administered a CD39 blocker (sodium polyoxotungstate) or mice administered an apyrase (potato apyrase) were made septic by cecal ligation and puncture (CLP) and survival after CLP was recorded for 7 days. In addition, the immune status of the mice was assessed by measuring cytokine levels from blood and peritoneal lavage fluid. […] Thus, ectonucleotidase manipulation is therapeutically useful for the treatment of septic shock.
(§1) CD39 knockout (KO) mice and their wild-type littermates were developed according to established methods and were backcrossed 6-8 times to a C57BL/6J background (Enjyoji, et al. (1999) Nat. Med. 5(9):1010-7). Wild-type and KO littermates were used in this analysis. In some experiments, mice were treated with sodium polyoxotungstate (POM-1, Na6[H2W12O40], 3 mg/kg/h, […], prior to CLP) or apyrase from potatoes (Sigma, 5 U apyrase i.p., prior to CLP).
(§2) Polymicrobial sepsis was induced by subjecting C57BL/6J mice to CLP in accordance with established methods (Németh, et al. (2006) supra; Gallos, et al. (2005) supra; Lee, et al. (2006) supra; Csóka, et al. (2010) supra). After the operation, all mice were resuscitated with 1 ml physiological saline injected s.c. and returned to their cages with free access to food and water.

TNF-α = TNF-α level after CLP (ELISA); format: in vivo, mouse; settings: C57BL/6J mice, 16 hours post-CLP, vs. vehicle
Description: as §1, §2
(§3) Sixteen hours after the CLP operation (the following day), the mice were reanesthetized with pentobarbital (50 mg/kg i.p.), and blood and peritoneal lavage fluid were harvested. Specifically, after opening the chest of mice, blood samples were obtained aseptically by cardiac puncture using heparinized syringes. […]
(§4) Concentrations of TNF-α and MIP-2 were determined in blood and peritoneal lavage fluid obtained 16 hours after CLP using commercially available ELISA kits (R&D Systems, Minneapolis, Minn.) according to the manufacturer's instructions.

MIP-2 = MIP-2 level after CLP (ELISA); format: in vivo, mouse; settings: C57BL/6J mice, 16 hours post-CLP, vs. vehicle
Description: as §1, §2, §3, §4

Molecule | inflammatory cytokine levels (adenosine receptors) | organ dysfunction [1] | TNF-α levels (TNF-α) | MIP-2 levels (MIP-2)
CCNC(=O)[C@H]1O[C@@H](n2cnc3c(N)ncnc32)[C@H](O)[C@@H]1O [NECA, 5′-(N-ethylcarboxamido)adenosine] | completely reversed the increased cytokine levels |  |  | 
apyrase |  | prevents organ dysfunction | decreases plasma cytokine levels; also recorded: decreased the levels | decreases plasma cytokine levels; also recorded: decreased the levels
sodium polyoxotungstate [reference compound] |  |  | increased the levels | increased the levels
